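Where inhibition never reached the appropriate level, the endpoint shown equals the highest concentration tested. Otherwise, values were interpolated linearly from a five-concentration, 48-hour dose response in 96-well plates. TGI marks complete inhibition of growth.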
Tests used:
Test in all cases: NCI tumour cell line growth inhibition, 48 h
[1] = tested on: OVCAR-5 ovarian
[2] = tested on: RXF 393 renal
[3] = tested on: MDA-N
[4] = tested on: OVCAR-3 ovarian
[5] = tested on: UACC-257 melanoma
[6] = tested on: CCRF-CEM leukemia
[7] = tested on: TK-10 renal
[8] = tested on: BT-549 breast
[9] = tested on: DU-145 prostate
[10] = tested on: HCT-15 colon
[11] = tested on: NCI-H23 lung
[12] = tested on: EKVX NSCLC
[13] = tested on: OVCAR-8 ovarian
[14] = tested on: U251 CNS
[15] = tested on: MALME-3M melanoma
[16] = tested on: MDA-MB-435
[17] = tested on: OVCAR-4 ovarian
[18] = tested on: CAKI-1 renal
[19] = tested on: UACC-62 melanoma
[20] = tested on: KM20L2 colon
[21] = tested on: A498 renal
[22] = tested on: SR leukemia
[23] = tested on: HOP-92 NSCLC
[24] = tested on: SN12C renal
[25] = tested on: MOLT-4 leukemia
[26] = tested on: SW-620 colon
[27] = tested on: SNB-78 CNS
[28] = tested on: RPMI-8226 leukemia
[29] = tested on: SK-MEL-28 melanoma
[30] = tested on: 786-0 renal
[31] = tested on: HT29 colon
[32] = tested on: MDA-MB-231 breast
[33] = tested on: COLO 205 colon
[34] = tested on: ACHN renal
[35] = tested on: SF-539 CNS
[36] = tested on: DLD-1 colon
[37] = tested on: HS 578T breast
[38] = tested on: HOP-18 NSCLC
[39] = tested on: IGROV1 ovarian
[40] = tested on: SNB-19 CNS
[41] = tested on: HCT-116 colon
[42] = tested on: SK-MEL-5 melanoma
[43] = tested on: LOX IMVI melanoma
[44] = tested on: SK-OV-3 ovarian
[45] = tested on: KM12 colon
[46] = tested on: XF 498 CNS
[47] = tested on: NCI-H226 lung
[48] = tested on: RXF-631 renal
[49] = tested on: A549 NSCLC
[50] = tested on: NCI-H522 lung
[51] = tested on: LXFL 529 NSCLC
[52] = tested on: SF-295 CNS
[53] = tested on: M19-MEL melanoma
[54] = tested on: NCI-H460 lung
[55] = tested on: UO-31 renal
[56] = tested on: K-562 leukemia
[57] = tested on: SF-268 CNS
[58] = tested on: NCI/ADR-RES ovarian
[59] = tested on: DMS 114 small cell lung
[60] = tested on: SK-MEL-2 melanoma
[61] = tested on: SNB-75 CNS
[62] = tested on: PC-3 prostate
[63] = tested on: M14 melanoma
[64] = tested on: HL-60(TB) leukemia
[65] = tested on: HOP-62 NSCLC
[66] = tested on: DMS 273 small cell lung
[67] = tested on: MCF7 breast
[68] = tested on: HCC-2998 colon

For `O=C1/C(=C/c2ccc(Cl)c(Cl)c2)CNC/C1=C\c1ccc(Cl)c(Cl)c1`, the TGI [1] was 37.4 µM, the TGI [2] was 29.5 µM and the TGI [3] was 39.9 µM. For the same compound, the TGI [4] was 7.54 µM, the TGI [5] was 72.8 µM and the TGI [6] was 5.68 µM. For the same compound, the TGI [7] was 80 µM, the TGI [8] was 87.2 µM and the TGI [9] was > 100 µM. It also gave a TGI [10] of 7.95 µM, a TGI [11] of 26.9 µM and a TGI [12] of 13.6 µM. The TGI [13] was 16 µM, the TGI [14] was 11.9 µM and the TGI [15] was > 66.5 µM. For the same compound, the TGI [16] was 43.7 µM, the TGI [17] was 6.3 µM and the TGI [18] was 24.3 µM. For the same compound, the TGI [19] was 29.1 µM, the TGI [20] was 24.2 µM and the TGI [21] was 32.2 µM. The TGI [22] was > 24 µM, the TGI [23] was 50.7 µM and the TGI [24] was 12.9 µM. For the same compound, the TGI [25] was 28.3 µM, the TGI [26] was 11.9 µM and the TGI [27] was > 100 µM. For the same compound, the TGI [28] was > 49.8 µM, the TGI [29] was 62.9 µM and the TGI [30] was 5.53 µM. For the same compound, the TGI [31] was 45.2 µM, the TGI [32] was 8.7 µM and the TGI [33] was 17.3 µM. It also gave a TGI [34] of 35.6 µM, a TGI [35] of 15.9 µM and a TGI [36] of 3.84 µM. For the same compound, the TGI [37] was 19.3 µM, the TGI [38] was > 91.9 µM and the TGI [39] was 18.8 µM. The TGI [40] was 32.6 µM, the TGI [41] was 5.66 µM and the TGI [42] was > 70.4 µM. For the same compound, the TGI [43] was 13.5 µM, the TGI [44] was 69.6 µM and the TGI [45] was 24.9 µM. For the same compound, the TGI [46] was 35.9 µM, the TGI [47] was 39.9 µM and the TGI [48] was > 100 µM. The TGI [49] was 67.1 µM, the TGI [50] was 26.7 µM and the TGI [51] was 12.2 µM. For the same compound, the TGI [52] was 76.6 µM, the TGI [53] was > 58.1 µM and the TGI [54] was 29.1 µM. It also gave a TGI [55] of 32.2 µM, a TGI [56] of 19.5 µM and a TGI [57] of 16.4 µM. For the same compound, the TGI [58] was 14.1 µM, the TGI [59] was > 32.7 µM and the TGI [60] was 49.3 µM. For the same compound, the TGI [61] was 33.9 µM, the TGI [62] was 47.7 µM and the TGI [63] was 33.9 µM. For the same compound, the TGI [64] was > 64.2 µM, the TGI [65] was 38.8 µM and the TGI [66] was 19.2 µM. It also gave a TGI [67] of 50 µM and a TGI [68] of 21.7 µM.
